Patent publication US20240382487A1, “NOVEL COPI/ARF1-LIPOLYSIS PATHWAY INHIBITOR AND COMPOUND FOR ERADICATING CANCER STEM CELLS AND INDUCING DAMP-MEDIATED ANTI-TUMOR IMMUNE RESPONSE” (FUDAN UNIVERSITY, priority 2020, published 2024)
Where two headings read alike, the source gives them in different places.

Columns and labels:
[1] = tested on: Drosophila stem cell tumors; assay: Drosophila screen (stem cell / intestinal tumors); format: in vivo
Description: We tested 10 reported Arf1 inhibitors (Bill et al., 2011; Boal et al., 2010; Feng et al., 2004; Newton et al., 2006; Ohashi et al., 2012; Sáenz et al., 2009; Sorieul et al., 2011; Viaud et al., 2007), including brefeldin A (BFA), Golgicide A (GCA), LM11, Secin16, Secin H3, Secin B7, Exo1, Exo2, LG8, and LG18, on Drosophila stem cell tumors and normal human bone marrow hematopoietic stem cells (HSCs).

Arf1 = target: T1, Arf1 (Homo sapiens, UniProt P84077); assay: Active Arf1 Pull-Down and Detection Kit (GTP-bound Arf1); format: biochemical; settings: liver cancer Huh-7 cell lysate; FIG. 1
T1 construct: Active Arf1 was detected by using The Thermo Scientific Pierce Active Arf1 Pull-Down and Detection Kit (Cat #16121) with liver cancer Huh-7 cell lysate; endogenous in cells; host or cells: Huh-7 liver cancer cells (lysate)
T1 sequence (P84077 whole entry): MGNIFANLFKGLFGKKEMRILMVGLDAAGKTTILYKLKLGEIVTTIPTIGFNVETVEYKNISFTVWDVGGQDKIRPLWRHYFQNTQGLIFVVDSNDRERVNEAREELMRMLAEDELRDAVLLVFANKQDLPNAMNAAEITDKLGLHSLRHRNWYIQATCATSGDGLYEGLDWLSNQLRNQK
Description: Active Arf1 was detected by using The Thermo Scientific Pierce Active Arf1 Pull-Down and Detection Kit (Cat #16121) with liver cancer Huh-7 cell lysate. It is a complete kit for selective enrichment and detection of GTP-bound Arf1 GTPase through specific protein interaction with the GGA3 protein-binding domain (FIG. 1).

B16-F10 melanoma [2] = assay: Lung metastasis of B16-F10 melanoma after tail vein injection; format: in vivo, C57B/6 mice; settings: B16-F10 cells treated with 10 μM Du 102, tail vein injection; lungs removed 15 days after injection
Description: B16-f10 tumor cells (treated with DMSO or 10 μM Du 102 treatment) was transferred intravenously via tail vein injection. Lungs were removed 15 days after injection and fixed in fekete's solution overnight. Three investigators in a blinded manner statistically available (Table 17).

liver cancer cell Huh7 = assay: In vitro cell line screening, Huh7; format: cell-based
Description: (§1) In different tumor cytotoxicity experiments in vitro (FIG. 2-FIG. 7), including colorectal cancer cell lines HT29 and LoVo cells, liver cancer cell Huh7, lung cancer cells H460 and A549, the arf1 inhibitor could all inhibit tumor cell growth (FIG. 2-FIG. 6), and there was a dose-dependent manner (FIG. 7).

lung cancer cells A549 = assay: In vitro cell line screening, A549; format: cell-based
Description: as §1

CT-26 colon carcinoma = assay: Drug-treated CT-26 cells in athymic nude mice; format: in vivo; parameters: unit not given here; settings: cells treated with 10 μM Du 102
Description: The immunogenicity of the reagents can be tested in mouse vaccination models (Obeid et al., 2007; Sagiv barfi et al., 2018). One flank of the mouse was injected with drug treated tumor cells, followed one week later by a second injection of syngeneic tumor cells. We tested the vaccine efficacy in CT-26 colon cancer, B16-F10 melanoma, and 4T1 breast cancer treated with DMSO or du102.
Cells will be treated with 10 μM Du 102 or DMSO treated CT26, 4T1 and B16-F10 tumor cells (5×10^5\1×10^5 and 5×10^5, respectively) were subcutaneously inoculated into 6-week-old female mice. After 7 days, equal amounts of corresponding tumor cells were seeded to the right side. Tumor cell lines were mixed with Matrigel (GIBCO, cat s̆ 354234) or resuspended in PBS and injected subcutaneously or intradermally.

4T1 breast carcinoma = assay: Vaccination model, drug-treated 4T1 cells in BALB/c mice; format: in vivo; parameters: unit not given here; settings: 4T1, BALB/c mice; for tumor size, left side with drug treatment: cells treated with 10 μM Du 102
mice = assay: Toxicity in mice, oral gavage; format: in vivo; settings: mouse, in vivo, po
B16-F10 melanoma [3] = assay: Vaccination model, drug-treated B16-F10 cells in C57B/6 mice; format: in vivo; parameters: unit not given here; settings: B16-F10, C57B/6 mice; for tumor size, left side with drug treatment: cells treated with 10 μM Du 102
tumor cells = assay: Tumor cytotoxicity experiments in vitro (all lines, general statements); format: cell-based; settings: HT29, LoVo, Huh7, H460, A549; FIG. 2-7
Description: as §1

[4] = tested on: chemokines and T cell activation markers; assay: Chemokines and T cell activation markers by quantitative RT-PCR in MYC-ON mice; format: in vivo
Description: Chemokines and T cell activation markers were measured by quantitative RT-PCR in DMSO or du102 treated MYC-ON mice. CD8 T cell infiltration and immunostimulatory cytokine expression were increased as measured by quantitative RT-PCR. […] CCL5 and CXCL10 chemokines stimulate CD4+ and CD8+ lymphocytes tumor infiltration (Parkes et al., 2017), and CXCL10 and CXCL11 are T cell associated chemokines.

[5] = tested on: colorectal cancer cell line LoVo; assay: In vitro cell line screening, LoVo; format: cell-based
Description: as §1

IL-1β = IL-1β induction, B16-F10 melanoma model; format: cell-based; settings: B16-F10 melanoma model in C57B/6 mice
Description: Example 7. Dulo2 Treatment Induces IL-1 in B16-F10 Melanoma of C57B/6 Mice. (Table 12)

[6] = tested on: colorectal cancer cell line HT29; assay: In vitro cell line screening, HT29; format: cell-based
Description: as §1

[7] = tested on: MHC expression, CD4 and CD8 T cell infiltration; assay: MHC expression and T-cell infiltration in MYC-ON mice; format: in vivo
Description: Du 102 treatment increases MHC expression. CD4 and CD8 T cell infiltration as quantified by Q-PCR in myc-on mice (Table 16).
MHC-1 or MHC-II positive infiltrating CD4+ and CD8+ T-cells measured by immunohistochemical staining of representative section.

With “1H-indolo-5-carbaldehyde 5,6,7,8,9,10-hexahydrocycloocta[4,5]thieno[2,3-d]pyrimidin-4-ylhydrazone [Du 102]” the “in vivo tumor suppressive effects” value ([1]; Drosophila screen, FIG. 8) was “good in vivo tumor suppressive effects”, the “killing Drosophila stem cell tumors” value ([1]; in vivo) was “effective” and the “inhibition of arf1 activation” value (Arf1) was “potent inhibitors”. For the same substance, the “lung metastases (surface tumor number)” value (B16-F10 melanoma [2]) was 5, the tumor suppressive effect (liver cancer cell Huh7) was “Tumor suppression effect” and the tumor suppressive effect (liver cancer cell Huh7; listed as Dul02) was “effective tumor suppressive effects”. The tumor suppressive effect (lung cancer cells A549) was “potency tumor suppressive effect”, the tumor suppressive effect (lung cancer cells A549; listed as Dul02) was “effective tumor suppressive effects” and the “CT-26 colon carcinoma tumor in Athymic mice” value (“CT-26 colon carcinoma tumor” for short) (CT-26 colon carcinoma; Day 0) was 0. For the same substance, the “CT-26 colon carcinoma tumor” value (CT-26 colon carcinoma; Day 5) was 0, the “CT-26 colon carcinoma tumor” value (CT-26 colon carcinoma; Day 10) was 15 and the “CT-26 colon carcinoma tumor” value (CT-26 colon carcinoma; Day 15) was 117. For the same substance, the “CT-26 colon carcinoma tumor” value (CT-26 colon carcinoma; Day 20) was 417, the “CT-26 colon carcinoma tumor” value (CT-26 colon carcinoma; Day 25) was 859 and the “tumors on right side after vaccination on left side” value (“tumors on right side” for short) (4T1 breast carcinoma; Day 0) was 0. For the same substance, the “tumor size, left side with drug treatment” value (shortened to “tumor size, left side”) (4T1 breast carcinoma; Day 0) was 0, the “tumors on right side” value (4T1 breast carcinoma; Day 5) was 0 and the “tumor size, left side” value (4T1 breast carcinoma; Day 5) was 0. The “tumors on right side” value (4T1 breast carcinoma; Day 10) was 0, the “tumor size, left side” value (4T1 breast carcinoma; Day 10) was 2.3 and the “tumors on right side” value (4T1 breast carcinoma; Day 15) was 0. For the same substance, the “tumor size, left side” value (4T1 breast carcinoma; Day 15) was 18.4, the “tumors on right side” value (4T1 breast carcinoma; Day 20) was 3.2 and the “tumor size, left side” value (4T1 breast carcinoma; Day 20) was 63.5. The “tumors on right side” value (4T1 breast carcinoma; Day 25) was 7.9, the “tumor size, left side” value (4T1 breast carcinoma; Day 25) was 102.4 and the “tumors on right side” value (4T1 breast carcinoma; Day 30) was 16.4. The “tumor size, left side” value (4T1 breast carcinoma; Day 30) was 173.6, the toxic effects (mice) was “no toxic effects were observed” and the “tumors on right side” value (B16-F10 melanoma [3]; Day 0) was 0. The “tumor size, left side” value (B16-F10 melanoma [3]; Day 0) was 0, the “tumors on right side” value (B16-F10 melanoma [3]; Day 5) was 0 and the “tumor size, left side” value (B16-F10 melanoma [3]; Day 5) was 0. The “tumors on right side” value (B16-F10 melanoma [3]; Day 10) was 0, the “tumor size, left side” value (B16-F10 melanoma [3]; Day 10) was 2 and the “tumors on right side” value (B16-F10 melanoma [3]; Day 15) was 0.6. The “tumor size, left side” value (B16-F10 melanoma [3]; Day 15) was 8, the “tumors on right side” value (B16-F10 melanoma [3]; Day 20) was 1.3 and the “tumor size, left side” value (B16-F10 melanoma [3]; Day 20) was 57. For the same substance, the “tumors on right side” value (B16-F10 melanoma [3]; Day 25) was 9.1, the “tumor size, left side” value (B16-F10 melanoma [3]; Day 25) was 81 and the “tumors on right side” value (B16-F10 melanoma [3]; Day 30) was 21.3. For the same substance, the “tumor size, left side” value (B16-F10 melanoma [3]; Day 30) was 177, the “tumor suppressive / inhibitory effect on tumor cells” value (tumor cells) was “Some Tumor Suppressive Effect” and the Ccl5 expression ([4]; DMSO 1.0) was 2.4. It also gave a Col22 expression ([4]; DMSO 1.0) of 2.5, a Cxcl11 expression ([4]; DMSO 1.0) of 2.8 and a GzmA expression ([4]; DMSO 1.0) of 2.3. It also gave a GzmB expression ([4]; DMSO 1.0) of 1.9, an IL-1β expression ([4]; DMSO 1.0) of 2.5 and a PD-L1 expression ([4]; DMSO 1.0) of 0.4. The Perforin expression ([4]; DMSO 1.0) was 2.2, the Cxcl10 expression ([4]; DMSO 1.1) was 3.1 and the INFγ expression ([4]; DMSO 1.1) was 3.2. For the same substance, the tumor suppressive effect [5] was “some tumor suppressive effect”, the tumor suppressive effect ([5]; listed as Dul02) was “effective tumor suppressive effects” and the IL-1β (IL-1β) was 952. For the same substance, the tumor suppressive effect [6] was “some tumor suppressive effect”, the tumor suppressive effect ([6]; listed as Dul02) was “effective tumor suppressive effects” and the MHC-1 ([7]; DMSO 0.6) was 51.7. It also gave an MHC-II ([7]; DMSO 0.7) of 43.6, a CD4 ([7]; DMSO 1.0) of 13.2 and a CD8 ([7]; DMSO 2.0) of 13.5.
